Results from patent US7923468B2, “1,4-benzothiepin-1,1-dioxide derivatives which are substituted with cyclohexyl groups, method for producing the same, drugs containing said compounds and use thereof” (Sanofi-Aventis Deutschland GmbH, priority 2006, dated 2011).

Molecular target: T1, human IBAT (Homo sapiens, UniProt Q12908)
T1 construct: Bases 599 to 1645 correspond to the complete coding region of human IBAT; expressed in transfected cells
T1 sequence (Q12908 1-348): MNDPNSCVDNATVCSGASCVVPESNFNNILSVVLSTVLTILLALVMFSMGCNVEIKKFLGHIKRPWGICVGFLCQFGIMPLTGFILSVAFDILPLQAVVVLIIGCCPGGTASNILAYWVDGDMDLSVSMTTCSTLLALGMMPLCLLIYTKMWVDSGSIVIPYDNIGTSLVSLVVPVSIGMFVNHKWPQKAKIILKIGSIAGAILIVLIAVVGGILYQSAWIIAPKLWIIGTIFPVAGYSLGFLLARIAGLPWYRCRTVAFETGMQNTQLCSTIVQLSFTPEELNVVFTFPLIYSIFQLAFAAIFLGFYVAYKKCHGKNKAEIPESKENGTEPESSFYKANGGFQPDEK
Assay: In vitro IBAT inhibition assay: uptake of [3H]-taurocholic acid into CHO-hIBAT cells
Format: cell-based
Conditions: taurocholic acid 10 μM, 60 min at room temperature, read-out: IC-50 (human IBAT)
Source text: Preparation and Procedure for the In Vitro IBAT Inhibition Assay:
• 1. Cloning of an Expression Vector for Human IBAT
The cDNA (complementary deoxyribonucleic acid) of human IBAT was cloned by standard methods of molecular biology as described for example in Molecular Cloning: A Laboratory Manual by Joseph Sambrook and David Russell, and introduced into the pcDNA1 vector from Invitrogen. […] Bases 599 to 1645 correspond to the complete coding region of human IBAT. • 2. Preparation of a Recombinant Cell Line with Constitutive Expression of Human IBAT
The expression vector for human IBAT was introduced by stable transfection into CHO (chinese hamster ovary) cells. […]
CHO-hIBAT cells were seeded in a concentration of 40 000 cells per well in poly-D-lysine-coated 96-well plates in cell culture medium and cultured for 24 h. […] Finally, 100 μl of scintillation fluid were added to each well, and the radioactivity taken up into the cells was determined in a MicroBeta Scintillation Microplate Reader from Wallac.
The half-maximum inhibitory effect of the test compound (IC50 value, inhibitory concentration 50) was determined in the following way: • 1. […] This is the measurement in the absence of substance, measured in sodium-containing transport assay buffer. • 2. […] This is the measurement in the absence of substance, measured in sodium-free transport assay buffer. • 3. […]

| IC50 | SMILES |
| --- | --- |
| 4.2 nM | CCCC[C@]1(CC)CS(=O)(=O)c2ccc(N(C)C)cc2[C@@H](c2cccc(NC(=O)N[C@@H]3[C@@H](O)[C@H](OCc4ccccc4)[C@@H](O)[C@H](OCc4ccccc4)[C@H]3O)c2)[C@H]1O [Example 1] |
| 16 nM | CCCC[C@]1(CC)CS(=O)(=O)c2ccc(N(C)C)cc2[C@@H](c2cccc(NC(=O)N[C@@H]3[C@@H](OS(=O)(=O)O)[C@H](OCc4ccccc4)[C@@H](OS(=O)(=O)O)[C@H](OCc4ccccc4)[C@H]3OS(=O)(=O)O)c2)[C@H]1O [Example 2] |
